According to patent US20220177490A1, “COMPOUNDS HAVING BOTH EFFECTS OF BET BROMODOMAIN PROTEIN INHIBITION AND PD-L1 GENE REGULATION” (priority 2019, published 2022):
pIC50: −log10 of the molar value. Read-outs that look alike come from different tables or passages of the source. Values belong to the compound of their own block, whether it stands above or below them.

Legend:
BRD4-1 (BRD4 BD1) = molecular target: T1, BRD4-1 (BRD4 BD1) (Homo sapiens, UniProt O60885); assay: AlphaScreen binding assay of BRD4 biochemical activity (BD1); settings: BD1, first value of cell; 10 concentrations, single well, initial 10 μM, 3-fold dilution
T1 construct: BRD4 (BD1, BD2)
Description: (§1) Test 1: IC50 characterization of the compounds at 10 concentrations.
(§2) The compounds were evaluated for IC50 against two BRD (BRD4-1, BRD4-2) at 10 concentrations, single well.
(§3) Buffer composition for BRD: 50 mM HEPES-HCl, pH7.5, 100 mM NaCl, 0.1% BSA, 0.05% CHAPS, and 1% DMSO.
(§4) Assay: AlphaScreen binding assay (Ex/Em=680/520-620 nm)
(§5) 2.1 4×BRD was added into wells of a reaction plate, except for control wells without BRD, in which BRD was replaced with a buffer.
(§6) 2.2 A solution of the compounds in 100% DMSO was added to the BRD mixture using Acoustic Technology (Echo550, nanoliter level). The mixture was centrifuged, shaken gently at room temperature, and pre-incubated for 30 minutes.
(§7) 2.3 4× ligand was added, and the mixture was centrifuged and shaken.
(§8) 2.4 The mixture was shaken gently and incubated at room temperature for 30 minutes.
(§9) 2.5 4× donor beads were added in the dark, and the mixture was centrifuged and shaken.
(§10) 2.6 4× acceptor beads were added in the dark, and the mixture was centrifuged and shaken gently in the dark for 60 minutes.
(§11) 2.7 The Alpha assay was carried out using Enspire (Ex/Em=680/520-620 nm)
(§12) The four-parameter fitting was performed by GraphPadPrism4 software using the following formula to obtain an IC50 fitting curve:
(§13) Y=minimum+(maximum−minimum)/(1+10^((Log IC50−X)*HillSplope))
(§14) Prism settings: 4-parameter dose-response curve (with variable slope), constrained; minimum=0, maximum=less than 120

BRD4-2 (BRD4 BD2) = molecular target: T2, BRD4-2 (BRD4 BD2) (Homo sapiens, UniProt O60885); assay: AlphaScreen binding assay of BRD4 biochemical activity (BD2); settings: BD2, second value of cell; 10 concentrations, single well, initial 10 μM, 3-fold dilution
T2 construct: BRD4 (BD1, BD2)
Description: as §1, §2, §3, §4, §5, §6, §7, §8, §9, §10, §11, §12, §13, §14

[1] = tested on: Mouse colon cancer MC38 cells; assay: In vivo efficacy in transplanted tumor model of MC38 mouse colon cancer cells; settings: C57BL/6 mice, 18 days of administration
Description: Mouse colon cancer MC38 cells (Art. No. HYC3401) were cultured in vitro in single layer under the conditions of DMEM containing 10% fetal bovine serum and 37° C. 5% CO2 incubator. Trypsin-EDTA was used for routine digestion and passage. When the cells were in exponential growth phase and the saturation was 80%-90%, the cells were collected and counted.
Cells were re-suspended in DPBS at a density of […]. 0.1 mL DPBS (containing 2×10^5 MC38 cells) was subcutaneously inoculated into the right back of each mouse. When average tumor volume reached ˜63 mm^3, mice were randomly grouped and administered according to tumor volume.
Tumor diameter was measured with vernier caliper three times a week. The calculation formula of tumor volume was as follows: V=0.5×a×b^2, wherein a and b indicated the long and short diameters of a tumor, respectively.
The anti-tumor effect of the compounds was evaluated using TGI (%) or relative tumor proliferation rate T/C (%). Relative tumor proliferation rate T/C (%)=TRTV;/CRTV×100 (TRTV: average RTV for treatment group; CRTV: average RTV for negative control group). According to the results of tumor measurement, relative tumor volume (RTV) was calculated using the formula: RTV=Vt/V0, wherein V0 is the tumor volume measured when grouped and administered (i.e., D0), Vt is the tumor volume at a certain measurement, and the data of TRTV and CRTV on the same day were used.
TGI (%) reflects the rate of tumor growth inhibition. TGI (%)=[(1−(Average tumor volume at the end of administration for a treatment group−Average tumor volume at the beginning of administration for the treatment group))/(Average tumor volume at the end of treatment for a vehicle control group-Average tumor volume at the beginning of treatment for the vehicle control group)]×100.
Statistical analysis was performed using SPSS software based on the relative tumor volume and tumor weight at the end of the test. T-test was used for comparison between two groups and one-way ANOVA was used for comparison among three or more groups. If variance was not neat (significant difference was found in F value), Games-Howell method was used for test. P<0.05 was considered a significant difference.

[2] = tested on: EMT-6 mouse breast cancer cell line; assay: Anti-tumor activity in EMT-6 in vivo tumor model; settings: EMT-6 model, BALB/C mice, 30 mg/kg intragastrically
Description: The anti-tumor effect of the test compound was investigated on an in vivo tumor model of mouse breast cancer EMT-6.
Female BALB/C mice were subcutaneously inoculated with an EMT-6 mouse breast cancer cell line, grouped according to body weight and tumor volume on the 8th day after inoculation, and administered as described below.
(§15) Group 1 (control group): Vehicle control was administered intragastrically at a dose of 0.1 mL/10 g body weight twice a day.
(§16) Group 2: Compound 4 dissolved in (5% DMSO+40% PEG 400+10% Solutol+45% DDH2O) was administered intragastrically at a dose of 30 mg/kg body weight.
(§17) During the assay, the body weight and tumor volume of mice were measured three times a week, and the tumor volume was calculated according to the formula of length×width^2/2. The tumor proliferation rate and tumor inhibition rate were calculated according to the formula: tumor proliferation rate=tumor volume of treatment group/tumor volume of control group×100%; tumor inhibition rate=(tumor volume of control group-tumor volume of treatment group)/tumor volume of control group.
(§18) Student's t-test was used for statistical analysis between groups, and p<0.05 indicated significant difference.

[3] = tested on: PAN02 mouse pancreatic cancer cell line; assay: In vivo efficacy in PAN02 tumor model; settings: C57BL/6 mice, 30 mg/kg intragastrically, day 32
Description: The anti-tumor effect of the test compound was investigated on an in vivo tumor model of mouse pancreatic cancer PAN02.
Female C57BL/6 mice were subcutaneously inoculated with PAN02 mouse pancreatic cancer cell line, grouped according to body weight and tumor volume on the 8th day after inoculation, and administered as described below.
as §15, §16
as §17, with “group−tumor” for “group-tumor”
as §18

[4] = Pharmacokinetic study in male CD-1 mice, LC/MS/MS of plasma; assay type: in vivo; settings: mouse; for Vd: read-out: Apparent volume of distribution Vdss; for AUC(0-inf): read-out: Area under curve (0-inf) AUC0-inf; for AUC(0-t): read-out: Area under curve (0-t) AUC0-last; for clearance: read-out: Clearance rate Cl; for half-life: read-out: Half life period T½ (converted); for Cmax: read-out: Drug concentration in blood Cmax; for Tmax: read-out: Peak arrival time Tmax; for bioavailability: read-out: bioavailability F
Description: 1.1 Male CD-1 mice were used as test animals, and the LC/MS/MS method was used to determine the drug concentration in plasma of mice at different times after intravenous and intragastric administration of the test compounds. The pharmacokinetic behavior of the compounds of the present disclosure in mice was studied, and the pharmacokinetic characteristics of the compounds of the present disclosure were evaluated.
2.2 Assay animals: Eight healthy adult male CD-1 mice, which were divided into four groups (two for each group) according to the principle of similar body weight. The animals were purchased from Shanghai Sippe-Bk Lab Animal Co., Ltd., with animal production license No. of SCXK (Shanghai) 2018-0006.
A proper amount of samples were weighed, to which a solvent was added. The mixture was stirred with ultrasound to a clear state for intravenous administration.
A proper amount of samples were weighed, to which a solvent was added. The mixture was stirred with ultrasound to a clear state for intragastric administration.
Eight male CD-1 mice were divided into four groups. After one-night fasting, two groups were administered intravenously, and the remaining two groups were administered intragastrically.
After intravenous administration of the test compounds to male CD-1 mice, […] of blood was collected at 0.0833, 0.25, 0.5, 1, 2, 4, 8, and 24 hours, and placed in commercial tubes containing EDTA-K2. After intragastric administration of the test compounds, […] of blood was collected at 0.25, 0.5, 1, 2, 4, 6, 8, and 24 hours, and placed in commercial tubes containing EDTA-K2. The tubes were centrifuged at 3000 g for 15 minutes to separate plasma and stored at −60° C. Animals were fed 2 hours after the administration.
The LC/MS/MS method was used to determine the content of the test compounds in the plasma of mice after intravenous and intragastric administration. The linear range of the method was 2.00-6000 nmol/L; The plasma samples were analyzed after protein precipitation with acetonitrile.

- pIC50 (BRD4-1 (BRD4 BD1)): 7.31
- pIC50 (BRD4-2 (BRD4 BD2)): 8.13
SMILES: Cc1sc2c(c1C)C(c1ccc(Cl)cc1)=N[C@@H](CC(=O)Nc1ccc3c(c1)CO/C3=N\O)c1nnc(C)n1-2 [Compound 1]

- pIC50 (BRD4-1 (BRD4 BD1)): 7.32
- pIC50 (BRD4-2 (BRD4 BD2)): 8.21
SMILES: Cc1sc2c(c1C)C(c1ccc(Cl)cc1)=N[C@@H](CC(=O)Nc1ccc3c(c1)CO/C3=N\C#N)c1nnc(C)n1-2 [Compound 2]

- pIC50 (BRD4-1 (BRD4 BD1)): 7.57
- pIC50 (BRD4-2 (BRD4 BD2)): 8.35
SMILES: Cc1sc2c(c1C)C(c1ccc(Cl)cc1)=N[C@@H](CC(=O)Nc1ccc3c(c1)CC1CON=C31)c1nnc(C)n1-2 (some centres unmarked) [Compound 3]

SMILES: CO/N=C1\OCc2cc(NC(=O)C[C@@H]3N=C(c4ccc(Cl)cc4)c4c(sc(C)c4C)-n4c(C)nnc43)ccc21 [Compound 4]
- TGI ([1]; 20 mpk p.o. BID): 85.90%
- TGI ([1]; 50 mpk p.o. BID): 97.66%
- tumor proliferation rate ([2]; Day 19): 23.92%
- tumor proliferation rate ([2]; end of the assay): 36.79%
- pIC50 (BRD4-1 (BRD4 BD1)): 7.55
- tumor proliferation rate [3]: 37.61%
- pIC50 (BRD4-2 (BRD4 BD2)): 8.18
- Vd ([4]; intravenous, 1 mg/kg): 1.84 L/kg
- AUC(0-inf) ([4]; intravenous, 1 mg/kg): 2.91 µM·h
- AUC(0-t) ([4]; intravenous, 1 mg/kg): 2.71 µM·h
- clearance ([4]; intravenous, 1 mg/kg): 10.2 mL/min/kg
- half-life ([4]; intravenous, 1 mg/kg): 2.05 h
- AUC(0-t) ([4]; po, intragastric, 2 mg/kg): 1.61 µM·h
- Cmax ([4]; po, intragastric, 2 mg/kg): 262 nM
- Tmax ([4]; po, intragastric, 2 mg/kg): 4 h
- bioavailability ([4]; po, intragastric, 2 mg/kg): 29.6%

- pIC50 (BRD4-1 (BRD4 BD1)): 7.54
- pIC50 (BRD4-2 (BRD4 BD2)): 8.22
SMILES: Cc1sc2c(c1C)C(c1ccc(Cl)cc1)=N[C@@H](CC(=O)Nc1ccc3c(c1)CO/C3=N\C1COC1)c1nnc(C)n1-2 [Compound 7]

- pIC50 (BRD4-1 (BRD4 BD1)): 7.07
- pIC50 (BRD4-2 (BRD4 BD2)): 7.82
SMILES: Cc1sc2c(c1C)C(c1ccc(Cl)cc1)=N[C@@H](CC(=O)Nc1ccc3c(c1)CO/C3=N\OC(C)C)c1nnc(C)n1-2 [Compound 8]

- pIC50 (BRD4-1 (BRD4 BD1)): 7.36
- pIC50 (BRD4-2 (BRD4 BD2)): 8.15
SMILES: CCO/N=C1\OCc2cc(NC(=O)C[C@@H]3N=C(c4ccc(Cl)cc4)c4c(sc(C)c4C)-n4c(C)nnc43)ccc21 [Compound 9]

- pIC50 (BRD4-1 (BRD4 BD1)): 7.57
- pIC50 (BRD4-2 (BRD4 BD2)): 8.45
SMILES: COCCO/N=C1\OCc2cc(NC(=O)C[C@@H]3N=C(c4ccc(Cl)cc4)c4c(sc(C)c4C)-n4c(C)nnc43)ccc21 [Compound 10]

SMILES: Cc1sc2c(c1C)C(c1ccc(Cl)cc1)=N[C@@H](CC(=O)Nc1ccc3c(c1)CO/C3=N\OC(F)F)c1nnc(C)n1-2 [Compound 11]
- TGI ([1]; 20 mpk p.o. BID): 54.16%
- TGI ([1]; 50 mpk p.o. BID): 84.11%
- pIC50 (BRD4-1 (BRD4 BD1)): 7.14
- pIC50 (BRD4-2 (BRD4 BD2)): 8.41
- Vd ([4]; intravenous, 1 mg/kg): 2.21 L/kg
- AUC(0-inf) ([4]; intravenous, 1 mg/kg): 2.44 µM·h
- AUC(0-t) ([4]; intravenous, 1 mg/kg): 2.26 µM·h
- clearance ([4]; intravenous, 1 mg/kg): 11.5 mL/min/kg
- half-life ([4]; intravenous, 1 mg/kg): 2.16 h
- AUC(0-t) ([4]; po, intragastric, 2 mg/kg): 1.31 µM·h
- Cmax ([4]; po, intragastric, 2 mg/kg): 115 nM
- Tmax ([4]; po, intragastric, 2 mg/kg): 7 h
- bioavailability ([4]; po, intragastric, 2 mg/kg): 29%

- pIC50 (BRD4-1 (BRD4 BD1)): 7.74
- pIC50 (BRD4-2 (BRD4 BD2)): 8.70
SMILES: Cc1sc2c(c1C)C(c1ccc(Cl)cc1)=N[C@@H](CC(=O)Nc1ccc3c(c1)Cn1ccnc1-3)c1nnc(C)n1-2 [Compound 12]

- pIC50 (BRD4-1 (BRD4 BD1)): 7.88
- pIC50 (BRD4-2 (BRD4 BD2)): 8.65
SMILES: Cc1sc2c(c1C)C(c1ccc(Cl)cc1)=N[C@@H](CC(=O)Nc1ccc3c(c1)CO/C3=N\N(C)C)c1nnc(C)n1-2 [Compound 13]
